# Where two headings read alike, the source gives them in different places. Positions of bridges follow the written chain, without caps; N, C: chain ends. Residues, ends and D or L forms follow the SMILES beside them.
# Tests used:
# [1] = tested on: S. aureus (SA) agr-III; set-up: method as in ref (5) (a number printed in a supplementary file, which may have a reference list of its own: not looked up in the article's list); settings: hemolysis; ref (5); cited from earlier work
# [2] = molecular target: T1, SA AgrC-III (Staphylococcus aureus, UniProt O33590); settings: 100 nM cognate AIP, ± SEM, determined previously, ref (1), cited from earlier work
# [3] = tested on: S. aureus (SA) agr-III; settings: b-lactamase, cited from earlier work
# [4] = molecular target: T2, SA AgrC-II (Staphylococcus aureus, UniProt O33587); settings: 100 nM cognate AIP; ± SEM; -b = no inhibition recorded at the highest AIP concentration tested; determined previously; ref (1); read-out: IC50, SA AgrC-II, b-lactamase assay; cited from earlier work
# [5] = tested on: S. epidermidis (SE) agr-I; settings: fluorescence; ref (11); cited from earlier work
# [6] = molecular target: T3, SA AgrC-IV (Staphylococcus aureus, UniProt Q309Z2); settings: ± SEM, determined previously, ref (1), cited from earlier work; for IC50: 100 nM cognate AIP, -b = no inhibition recorded at the highest AIP concentration tested, read-out: IC50, SA AgrC-IV, b-lactamase assay
# [7] = tested on: S. aureus (SA) agr-II; settings: b-lactamase, cited from earlier work
# [8] = tested on: S. aureus (SA) agr-IV; settings: b-lactamase, cited from earlier work
# [9] = tested on: S. aureus (SA) agr-II; set-up: method as in ref (5) (a number printed in a supplementary file, which may have a reference list of its own: not looked up in the article's list); settings: hemolysis; ref (5); cited from earlier work
# [10] = tested on: S. aureus (SA) agr-I; settings: b-lactamase, cited from earlier work
# [11] = molecular target: T4, SA AgrC-I (Staphylococcus aureus, UniProt O07911); settings: ± SEM; determined previously; ref (1); read-out: EC50, SA AgrC-I, b-lactamase assay; cited from earlier work
# [12] = tested on: S. aureus (SA) agr-II; settings: fluorescence; ref (5); cited from earlier work
# [13] = tested on: S. aureus (SA) agr-III; settings: fluorescence; ref (5); cited from earlier work
# [14] = tested on: S. epidermidis (SE) agr-I; set-up: method as in ref (9) (a number printed in a supplementary file, which may have a reference list of its own: not looked up in the article's list); settings: HPLC d-toxin, ref (9); cited from earlier work
# [15] = molecular target: S. aureus agr-I (Staphylococcus aureus, UniProt O07911); experiment: Fluorescence reporter assay for agr interference, screening and IC50 (AH1677, P3-YFP); assay type: cell-based; settings: fluorescent reporter strain; peptides tested at 1000, 50, 2.5, 0.125 nM or in dose-response
# Experimental: (§1) Peptides were evaluated for the ability to interfere with agr-mediated quorum sensing in S. aureus (AH1677, AH430, AH1747, and AH1872 for agr-I–IV, respectively) ([40]) using reporter strains expressing yellow fluorescent protein (YFP) upon agr activation. Interference with agr-mediated quorum sensing in S. epidermidis (AH3408, AH3623, and AH3409 for agr-I–III, respectively) ([45]), and S. lugdunensis (AH4031 for agr-I) ([37]) was evaluated using reporter strains expressing superfolder green fluorescent protein (sGFP) upon agr activation. Overnight cultures of the reporter strains were grown in TSB medium containing chloramphenicol (CAM, 10 μg/mL for S. aureus) or erythromycin (ERM, 10 μg/mL of S. epidermidis and S. lugdunensis) and diluted 1:100 in fresh TSB medium containing the same antibiotic. Assays were performed in sterile black 96-well plates with a clear bottom. […] DMSO stock solutions of peptides (1 mM) were diluted in TSB media and added (15 μL) in technical triplicate to the 96-well plate, followed by diluted bacterial overnight cultures (135 μL). […] Wells containing 150 μL TSB medium were used to measure background fluorescence. The 96-well plates were incubated in a humidified incubator at 37°C shaking at 1,000 rpm for 22–24 h and fluorescence (for GFP: excitation 479 nm, emission 520 nm; for YFP: excitation 500 nm, emission 541 nm; automatic gain), and OD600 values were subsequently measured using a plate reader. Background fluorescence was subtracted from all wells and further normalized to the corresponding OD600 value of the respective wells. The average fluorescence of control wells was used as a relative measure for 100% activation of the agr-circuit, and bar graphs were generated using GraphPad Prism 10.4 software. All assays were performed in at least a biological duplicate.
# (§2) Overnight cultures of the reporter strains were grown in TSB medium containing chloramphenicol (CAM, 10 μg/mL for S. aureus) or erythromycin (ERM, 10 μg/mL of S. epidermidis and S. lugdunensis) and diluted 1:100 in fresh TSB medium containing the same antibiotic. Assays were performed in sterile black 96-well plates with clear bottoms. Peptide solutions (15 μL) in 1:5 serial dilutions from DMSO stock solutions (1 mM) in TSB medium were added to the 96-well plate in technical duplicate followed by diluted bacterial overnight cultures (135 μL). […] Wells containing 150 μL TSB medium were used to measure background fluorescence. The 96-well plates were incubated in a humidified incubator at 37°C shaking at 1,000 rpm for 22–24 h and fluorescence (for GFP: excitation 479 nm, emission 520 nm; for YFP: excitation 500 nm, emission 541 nm; automatic gain), and OD600 values were subsequently measured using a plate reader. Background fluorescence was subtracted from all wells and further normalized to the corresponding OD600 value of the respective wells. The average fluorescence of control wells was used as a relative measure for 100% activation of the agr-circuit. Relative agr activity was plotted to obtain IC50 values by non-linear regression with variable slope using GraphPad Prism 10.4 software. All assays were performed in biological triplicate.
# [16] = molecular target: S. epidermidis agr-II (Staphylococcus epidermidis, UniProt Q8VSX5); experiment: cell-based; assay type: cell-based; settings: fluorescent reporter strain; peptides tested at 1000, 50, 2.5, 0.125 nM or in dose-response
# Procedure, shortened: (§3)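 Reporter strains, with YFP (S. aureus) or sGFP (S. epidermidis) under agr P3, were diluted 1:100 from overnight TSB cultures with antibiotic and exposed to peptides for 22–24 h at 37°C, shaking. Background-subtracted fluorescence was normalized to OD600 and expressed relative to peptide-free control wells; IC50 came from variable-slope non-linear regression.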
# [17] = molecular target: S. epidermidis agr-III (Staphylococcus epidermidis, UniProt Q8VSX2); experiment: cell-based; assay type: cell-based; settings: fluorescent reporter strain; peptides tested at 1000, 50, 2.5, 0.125 nM or in dose-response
# Procedure, shortened: as §3
# [18] = molecular target: S. aureus agr-IV (Staphylococcus aureus, UniProt Q309Z2); experiment: cell-based; assay type: cell-based; settings: fluorescent reporter strain; peptides tested at 1000, 50, 2.5, 0.125 nM or in dose-response
# Procedure, shortened: as §3
# [19] = molecular target: S. lugdunensis agr-I (Staphylococcus lugdunensis, UniProt Q8VSW5); experiment: cell-based; settings: fluorescent reporter strain; peptides tested at 1000, 50, 2.5, 0.125 nM or in dose-response
# Procedure, shortened: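 Fluorescence of the agr-driven P3 reporter, read after 22–24 h of growth with peptide at 37°C, was corrected for medium background and divided by OD600. Activity is given relative to wells without peptide, and IC50 values were fitted by non-linear regression with variable slope.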
# [20] = molecular target: S. aureus agr-II (Staphylococcus aureus, UniProt O33587); experiment: cell-based; settings: fluorescent reporter strain; peptides tested at 1000, 50, 2.5, 0.125 nM or in dose-response
# Procedure, shortened: as §3
# [21] = molecular target: S. aureus agr-III (Staphylococcus aureus, UniProt O33590); experiment: cell-based; settings: fluorescent reporter strain; peptides tested at 1000, 50, 2.5, 0.125 nM or in dose-response
# Procedure, shortened: as §3
# [22] = molecular target: S. epidermidis agr-I (Staphylococcus epidermidis, UniProt Q5HMY3); experiment: cell-based; assay type: cell-based; settings: fluorescent reporter strain; peptides tested at 1000, 50, 2.5, 0.125 nM or in dose-response
# Experimental: as §1, §2
# [23] = molecular target: T2, SA AgrC-II; experiment: β-Lactamase assay, reporter strain RN10829 (P2-agrA:P3-blaZ) with pagrC-II; assay type: cell-based
# Procedure, shortened: (§4)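 S. aureus RN10829 P2-agrA:P3-blaZ reporter carrying a plasmid for the matching wild-type AgrC, grown in TSB to OD600 0.35–0.40. Cells met peptides (10 μM–10 pM) plus cognate AIP at 100 nM for 1 h at 37°C, then nitrocefin (33.3 μg/mL) turnover was read at OD486 for 10 min; IC50 from linear rates.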
# [24] = molecular target: T4, SA AgrC-I; experiment: β-Lactamase assay, reporter strain RN10829 (P2-agrA:P3-blaZ) with pagrC-I; assay type: cell-based
# Text: The β-lactamase reporter strain RN10829 (P2-agrA:P3-blaZ) ([62]), with pagrC-I ([63]), pagrC-II, pagrC-III, or pagrC-IV ([11]), substituting the native agr locus with a chromosomal integration of P2-agrA and P3-blaZ and a plasmid from which a wild-type variant of the corresponding AgrC is expressed, was used to assess inhibition and activation of the AgrC receptor via β-lactamase activity in response to varying concentrations of the QS modulating peptides. Overnight cultures of the reporter strains in TSB medium were diluted 1:250 in fresh TSB medium and grown to OD600 = 0.35–0.40 (early exponential phase) at 37°C. Peptide solutions (10 μL) in 1:10 serial dilutions from DMSO stock solutions (1 mM) in TSB medium (final concentrations = 10 μM–10 pM) were added to each well of a clear 96-well plate as well as solutions (10 μL) of cognate AIP (final concentration = 100 nM) in TSB medium followed by 80 μL of bacterial cells. […] The 96-well plates were incubated at 37°C shaking at 200 rpm for 1 h and immediately frozen down at −80°C to minimize growth during nitrocefin treatment. Next, the 96-well plates were thawed, and OD600 values were determined using a plate reader followed by the addition of 50 μL of nitrocefin solution to the wells (final concentration = 33.3 μg/mL). β-Lactamase activity was monitored at OD486 every 20 s for 10 min at 37°C using a plate-reader. Linear nitrocefin conversion rates were plotted to obtain IC50 values by non-linear regression with variable slope using GraphPad Prism 10.4 software. Assays were performed at least as duplicate determinations in biological triplicate.
# [25] = molecular target: T3, SA AgrC-IV; experiment: β-Lactamase assay, reporter strain RN10829 (P2-agrA:P3-blaZ) with pagrC-IV; assay type: cell-based; settings: 100 nM cognate AIP; ± SEM; -b = no inhibition recorded at the highest AIP concentration tested; -a = only partial inhibition observed; this study (curves in Fig. S22)
# Procedure, shortened: as §4
# [26] = molecular target: T1, SA AgrC-III; experiment: β-Lactamase assay, reporter strain RN10829 (P2-agrA:P3-blaZ) with pagrC-III; assay type: cell-based
# Procedure, shortened: as §4
# [27] = -b = no inhibition recorded at the highest AIP concentration tested, read-out: IC50, SA AgrC-III, b-lactamase assay
# T1 sequence (O33590 entry or part of it): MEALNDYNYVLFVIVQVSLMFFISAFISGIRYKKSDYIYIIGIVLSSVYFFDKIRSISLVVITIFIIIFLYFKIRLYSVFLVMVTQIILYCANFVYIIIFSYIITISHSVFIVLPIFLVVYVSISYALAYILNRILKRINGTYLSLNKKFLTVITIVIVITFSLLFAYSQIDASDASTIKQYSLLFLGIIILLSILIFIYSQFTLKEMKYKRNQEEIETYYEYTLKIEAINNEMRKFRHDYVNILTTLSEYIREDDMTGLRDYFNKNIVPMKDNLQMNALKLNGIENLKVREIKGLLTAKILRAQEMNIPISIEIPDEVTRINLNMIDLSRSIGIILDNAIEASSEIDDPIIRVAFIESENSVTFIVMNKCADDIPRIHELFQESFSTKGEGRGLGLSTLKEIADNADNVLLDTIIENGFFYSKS
# T2 sequence (O33587 entry or part of it): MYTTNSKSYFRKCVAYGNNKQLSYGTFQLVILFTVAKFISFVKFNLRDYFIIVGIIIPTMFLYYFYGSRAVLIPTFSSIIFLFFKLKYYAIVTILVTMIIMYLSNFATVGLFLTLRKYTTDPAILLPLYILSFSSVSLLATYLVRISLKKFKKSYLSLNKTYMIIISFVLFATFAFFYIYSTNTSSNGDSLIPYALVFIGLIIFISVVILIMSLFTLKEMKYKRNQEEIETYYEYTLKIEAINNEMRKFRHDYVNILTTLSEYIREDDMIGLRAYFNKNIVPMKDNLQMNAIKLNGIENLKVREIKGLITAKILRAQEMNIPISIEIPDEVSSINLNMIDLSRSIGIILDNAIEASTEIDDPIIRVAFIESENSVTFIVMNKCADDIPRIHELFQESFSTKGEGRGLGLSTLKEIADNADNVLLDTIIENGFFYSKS
# T3 sequence (Q309Z2 entry or part of it): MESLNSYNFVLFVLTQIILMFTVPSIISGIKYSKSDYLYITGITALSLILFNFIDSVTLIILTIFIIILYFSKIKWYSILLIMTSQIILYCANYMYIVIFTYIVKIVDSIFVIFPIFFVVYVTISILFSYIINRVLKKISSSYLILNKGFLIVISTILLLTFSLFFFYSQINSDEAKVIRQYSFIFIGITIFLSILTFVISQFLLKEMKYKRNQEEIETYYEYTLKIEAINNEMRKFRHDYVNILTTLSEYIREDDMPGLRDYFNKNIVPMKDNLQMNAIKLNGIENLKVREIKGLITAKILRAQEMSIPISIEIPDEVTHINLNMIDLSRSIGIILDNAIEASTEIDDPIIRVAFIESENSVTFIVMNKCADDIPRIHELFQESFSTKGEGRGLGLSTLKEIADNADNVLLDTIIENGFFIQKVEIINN
# S. epidermidis agr-II, sequence (Q8VSX5 entry or part of it): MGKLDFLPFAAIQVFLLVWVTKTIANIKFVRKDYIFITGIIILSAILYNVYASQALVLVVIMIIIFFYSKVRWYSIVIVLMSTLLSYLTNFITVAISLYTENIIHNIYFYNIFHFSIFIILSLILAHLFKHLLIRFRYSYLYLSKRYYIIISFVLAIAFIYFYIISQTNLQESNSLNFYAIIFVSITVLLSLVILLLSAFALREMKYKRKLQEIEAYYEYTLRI
# S. aureus agr-III, sequence (O33590 entry or part of it): as the sequence (O33590 entry or part of it) above
# S. aureus agr-II, sequence (O33587 entry or part of it): as the sequence (O33587 entry or part of it) above
# S. epidermidis agr-III, sequence (Q8VSX2 entry or part of it): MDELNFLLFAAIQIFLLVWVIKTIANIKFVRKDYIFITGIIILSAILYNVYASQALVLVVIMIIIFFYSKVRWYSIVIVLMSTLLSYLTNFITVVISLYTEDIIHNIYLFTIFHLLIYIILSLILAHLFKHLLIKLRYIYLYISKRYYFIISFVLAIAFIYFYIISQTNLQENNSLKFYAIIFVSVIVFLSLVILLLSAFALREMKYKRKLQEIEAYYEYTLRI
# S. lugdunensis agr-I, sequence (Q8VSW5 entry or part of it): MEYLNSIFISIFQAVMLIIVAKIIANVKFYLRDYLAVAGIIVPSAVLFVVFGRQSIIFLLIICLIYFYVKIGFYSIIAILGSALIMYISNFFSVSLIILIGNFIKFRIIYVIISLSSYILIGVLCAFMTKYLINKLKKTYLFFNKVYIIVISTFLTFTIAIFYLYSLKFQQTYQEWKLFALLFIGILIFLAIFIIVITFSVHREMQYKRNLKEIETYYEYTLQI
# S. aureus agr-I, sequence (O07911 entry or part of it): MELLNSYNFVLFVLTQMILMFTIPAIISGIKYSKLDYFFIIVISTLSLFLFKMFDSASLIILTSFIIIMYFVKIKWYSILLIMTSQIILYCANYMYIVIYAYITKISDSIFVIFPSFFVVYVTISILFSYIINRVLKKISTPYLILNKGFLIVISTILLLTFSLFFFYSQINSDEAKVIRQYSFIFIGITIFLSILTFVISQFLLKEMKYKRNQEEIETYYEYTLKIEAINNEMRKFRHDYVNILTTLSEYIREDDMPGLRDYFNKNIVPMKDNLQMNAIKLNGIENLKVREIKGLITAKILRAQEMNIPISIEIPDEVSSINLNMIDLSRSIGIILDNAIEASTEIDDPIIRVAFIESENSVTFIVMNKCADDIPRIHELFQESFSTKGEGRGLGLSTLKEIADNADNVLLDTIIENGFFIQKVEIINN
# T4 sequence (O07911 entry or part of it): as above
# S. aureus agr-IV, sequence (Q309Z2 entry or part of it): as the sequence (Q309Z2 entry or part of it) above
# S. epidermidis agr-I, sequence (Q5HMY3 entry or part of it): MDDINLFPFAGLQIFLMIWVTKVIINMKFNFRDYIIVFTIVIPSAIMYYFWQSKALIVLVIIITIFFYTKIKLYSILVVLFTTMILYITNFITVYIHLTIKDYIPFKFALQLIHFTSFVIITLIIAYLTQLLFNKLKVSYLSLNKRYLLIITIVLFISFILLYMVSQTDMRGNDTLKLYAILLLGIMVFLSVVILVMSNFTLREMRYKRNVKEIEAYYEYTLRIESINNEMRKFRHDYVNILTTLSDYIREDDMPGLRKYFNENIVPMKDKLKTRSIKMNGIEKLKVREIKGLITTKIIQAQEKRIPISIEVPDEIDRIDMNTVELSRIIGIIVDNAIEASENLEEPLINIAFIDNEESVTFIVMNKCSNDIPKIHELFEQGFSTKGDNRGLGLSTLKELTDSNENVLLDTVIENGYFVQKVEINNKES
Compound,IC50 [4] [nM],"QS interaction in words (inhibition / activation), S. aureus agr-I [15]","QS interaction in words (inhibition / activation), S. epidermidis agr-II [16]","QS interaction in words (inhibition / activation), S. epidermidis agr-III [17]","QS interaction in words (inhibition / activation), S. aureus agr-IV [18]","IC50 [2, 27] [nM]","QS interaction in words (inhibition / activation), S. lugdunensis agr-I [19]","QS interaction in words (inhibition / activation), S. aureus agr-II [20]","QS interaction in words (inhibition / activation), S. aureus agr-III [21]","QS interaction in words (inhibition / activation), S. epidermidis agr-I [22]",IC50 [6] [nM],also measured
S. aureus AIP-IV [compound 4],47 ± 9,,,,,,,,,,,"IC50 [1]: 1.49 nM; IC50 ([2]; only partial inhibition observed, read-out: IC50, SA AgrC-III, b-lactamase assay, only partial inhibition observed (footnote a)): 9.8 ± 0.2 nM; IC50 ([3]; ref (4)): 1 nM; IC50 [5]: > 1000 nM; EC50 ([6]; read-out: EC50, SA AgrC-IV, b-lactamase assay): 2.6 ± 0.2 nM; IC50 ([7]; ref (4)): 4 nM; EC50 ([8]; ref (4)): 13 nM; EC50 ([8]; ref (7)): 7.9 nM; IC50 [9]: 0.09 nM; EC50 ([10]; ref (4)): 62 nM; EC50 [11]: 59 ± 2 nM; IC50 [12]: 0.37 nM; IC50 [13]: 0.46 nM; inhibition at 1000 nM, SE agr-I [14]: 40%"
S. chromogenes AIP-I [compound 27],200 ± 13,potently inhibited,potently inhibited,potently inhibited,potently inhibited,60 ± 13,only weakly inhibited,potently inhibited,potently inhibited,potently inhibited,350 ± 85,
"CC[C@H](C)[C@H](NC(=O)[C@@H](N)CCCNC(=N)N)C(=O)N1CCC[C@H]1C(=O)N[C@H](C(=O)N[C@H]1COC(=O)[C@H](Cc2ccccc2)NC(=O)[C@H](Cc2ccccc2)NC(=O)CNC(=O)[C@H]([C@@H](C)O)NC1=O)[C@@H](C)O [compound 31, S. intermedius AIP-I] (H-RIPTSTGFF; ester 5-C)",,,,,,,,,,,,"IC50 [23]: > 1000 nM; IC50 [24]: 87 ± 20 nM; inhibition from supernatant, SA agr-III ([3]; from supernatant, ref (16)): 60–100%; inhibition from supernatant, SA agr-II ([7]; from supernatant, ref (16)): 40–90%; inhibition from supernatant, SA agr-IV ([8]; from supernatant, ref (16)): 10–60%; inhibition from supernatant, SA agr-I ([10]; from supernatant, ref (16)): 80–100%; IC50, SA AgrC-IV, b-lactamase assay [25]: -b; IC50 [26]: 104 ± 20 nM"
S. hyicus AIP-I [compound 26],350 ± 90,potently inhibited,potently inhibited,potently inhibited,potently inhibited,4 ± 0.8,only weakly inhibited,potently inhibited,potently inhibited,potently inhibited,180 ± 33,
